Laboratory results reported in patent US9090599B2, “Heteroarylmethyl amides” (Hoffman-La Roche Inc., priority 2010, dated 2015).
Read-outs that look alike come from different tables or passages of the source.

How the values were obtained:
human CB2 receptor = target: T1, human CB2 receptor (Homo sapiens, UniProt P34972); experiment: CB2 receptor affinity, [3H]-CP-55,940 displacement, HEK cell membranes; format: binding; settings: 10 μM compound, radioligand [3H]-CP-55,940
T1 construct: expressed in transfected cells; host or cells: human embryonic kidney (HEK) cells, Semliki Forest Virus system, membrane preparations
T1 sequence (P34972 whole entry): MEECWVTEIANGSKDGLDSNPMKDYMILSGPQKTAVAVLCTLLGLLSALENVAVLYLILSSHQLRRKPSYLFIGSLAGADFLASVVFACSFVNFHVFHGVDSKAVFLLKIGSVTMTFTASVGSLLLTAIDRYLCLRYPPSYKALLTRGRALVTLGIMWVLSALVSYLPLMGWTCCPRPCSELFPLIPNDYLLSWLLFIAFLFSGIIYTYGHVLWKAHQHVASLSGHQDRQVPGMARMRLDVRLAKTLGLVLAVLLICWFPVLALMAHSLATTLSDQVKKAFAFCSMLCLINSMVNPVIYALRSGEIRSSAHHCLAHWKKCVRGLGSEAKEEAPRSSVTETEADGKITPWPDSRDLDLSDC
Outline: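 Membranes from HEK cells transiently expressing human CB2 (Semliki Forest Virus) incubated with [3H]-CP-55,940 ± compound at 10 μM. Bound ligand separated by glass-fibre filtration and counted by scintillation; reported as % inhibition at 10 μM.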

ABCA1 protein = experiment: Detection of upregulation of ABCA1 protein in THP-1 macrophage cells (ApoA-I binding, high content imaging); format: cell-based; settings: 24 hrs with compound, AlexaFluor 647 ApoA-I binding, read-out: ABCA1 protein increasing efficacy EC50
Description: The ability of compounds of the invention to increase the level of ABCA1 protein is determined in replicate cultures of THP-1 macrophage cells in 96-well microplates. Cells are plated at an initial density of 100,000 cells/well in 100 μl medium and differentiated to adherent macrophages with the addition of PMA (100 nM) for 68 hrs in 10% fetal bovine serum, 3 μl/L of b-mercaptoethanol, RPMI-1640 medium. Then, cells are incubated with RPMI-1640 medium containing 1% FCS, 25 μg/ml acetylated LDL, for 24 hours at 37°. Following incubation with acetylated LDL, cells are washed twice with 50 μl PBS and incubated with 100 μl of RPMI-1640 medium containing the compound of interest solubilized in DMSO for an additional 24 hrs. The final DMSO concentration in presence of cells is maintained at 0.5%. ApoA-I binding assay using High Content Image Analysis is initiated by replacing with fresh medium, RPMI without Phenol Red, 0.2% BSA containing AlexaFluor®647 labeled ApoA-I for 2 h/37° C./5% CO2. Then, cells are fixed with 4% Formaldehyde in PBS (15 min, RT). Following Nuclei are stained with Hoechst solution (3 μM PBS) and Cytoplasm with Cell Mask Blue (2 μg/ml PBS), 15 min, RT. Finally the stained cells are fixed with a second round of formaldehyde treatment. Fixed stained cells are washed and kept in PBS at 4° C. and can be read immediately until one month after preparation.
The Alexa Fluor 647-labeled Apolipoprotein A-I (20 nM) was prepared as follows: Human recombinant Apolipoprotein A-I (ApoA-I) was exchanged to a buffer of 0.02 M NaHCO3 at pH 8.2 on an NAP desalting column (GE Healthcare) and brought to a concentration to 40 μM (1.13 mg/ml) by adjustment with the same buffer. The ApoA-I was fluorescently labeled by incubation with Alexa Fluor carboxylic acid succimidyl ester. (Alexa Fluor 647, Invitrogen A-20006) at a 2:1 molar ratio (Alexa to ApoA-I) for 1 h under shaking at RT. The remaining unconjugated label was removed by buffer exchange to 0.02M NaHCO3 at pH 8.2.
Imaging and data collection were performed on an OPERA confocal microplate imaging reader using a 20× water immersion objective and UV360 or 405 laser to identify the cell nuclei and a 635 laser to identify the fluorescent ApoA-I. Eight fields of view are captured per well. Image capture and analysis was performed with the Acapella software. Background fluorescence detected in control wells without ApoA-I was subtracted.
Using XLfit3 program (ID Business Solutions Ltd. UK), the model 205 for Dose Response One Site is used to calculate the EC50 values. […] Preferably, the compounds of the present invention have EC50 values in a range of 0.1 μM to 3 μM.

human CB1 receptor = target: T2, human CB1 receptor (Homo sapiens, UniProt P21554); experiment: CB1 receptor affinity, [3H]-CP-55,940 displacement, HEK cell membranes; format: binding; settings: read-out: CB1 receptor affinity [% inhibition @ 10 μM]
T2 construct: expressed in transfected cells; host or cells: human embryonic kidney (HEK) cells, Semliki Forest Virus system, membrane preparations
T2 sequence (P21554 whole entry): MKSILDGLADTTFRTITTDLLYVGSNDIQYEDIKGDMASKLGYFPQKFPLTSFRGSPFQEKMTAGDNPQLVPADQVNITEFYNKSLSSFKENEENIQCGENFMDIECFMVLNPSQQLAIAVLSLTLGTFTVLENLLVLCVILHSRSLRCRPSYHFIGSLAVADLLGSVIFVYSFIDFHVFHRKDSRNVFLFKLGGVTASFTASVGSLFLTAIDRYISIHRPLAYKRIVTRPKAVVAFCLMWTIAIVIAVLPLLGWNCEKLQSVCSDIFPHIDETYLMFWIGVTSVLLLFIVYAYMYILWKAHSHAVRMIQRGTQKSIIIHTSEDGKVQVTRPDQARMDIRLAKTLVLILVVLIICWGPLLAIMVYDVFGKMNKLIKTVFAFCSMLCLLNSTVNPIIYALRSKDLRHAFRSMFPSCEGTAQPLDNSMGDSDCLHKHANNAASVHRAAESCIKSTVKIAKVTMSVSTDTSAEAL
Outline: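 Membranes from HEK cells transiently expressing human CB1 (Semliki Forest Virus system) incubated with [3H]-CP-55,940 with or without test compound. Bound and free ligand separated by glass-fibre filtration and bound radioactivity counted by scintillation. Compounds tested at 10 μM, values reported as % inhibition of radioligand binding.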

[1] = 10 μM compound, radioligand [3H]-CP-55,940

Row | SMILES | inhibition at 10 µM (human CB2 receptor) [%] | EC50 (ABCA1 protein) [µM] | inhibition at 10 µM (human CB1 receptor; [1]) [%] | inhibition at 10 µM (human CB1 receptor) [%]
1 | Cc1ccc(-c2cc(C(=O)NCc3nc(C(F)(F)F)no3)cnc2OCC(F)(F)F)cc1Cl [Example 80, 5-(3-chloro-4-methylphenyl)-6-(2,2,2-trifluoroethoxy)-N-((3-(trifluoromethyl)-1,2,4-oxadiazol-5-yl)methyl)nicotinamide] | -4 | 3.13 | 15 | 
2 | COc1cc(CNC(=O)c2cnc(O[C@@H](C)C(F)(F)F)c(-c3ccc(Cl)cc3)c2)on1 [Example 34, (S)-5-(4-chlorophenyl)-N-((3-methoxyisoxazol-5-yl)methyl)-6-(1,1,1-trifluoropropan-2-yloxy)nicotinamide] | 14 | 0.77 | 33 | 
3 | CC(C)c1cc(CNC(=O)c2cc(-c3ccc(Cl)cc3)c(OCC(F)(F)F)cn2)on1 [Example 2, 4-(4-chloro-phenyl)-5-(2,2,2-trifluoro-ethoxy)-pyridine-2-carboxylic acid (3-isopropyl-isoxazol-5-ylmethyl)-amide] | 14 | 1.09 | 30 | 
4 | O=C(NCc1cc(C(F)(F)F)no1)c1ncc(OCC(F)(F)F)c(-c2ccc(Cl)cc2)n1 [Example 61, 4-(4-chloro-phenyl)-5-(2,2,2-trifluoro-ethoxy)-pyrimidine-2-carboxylic acid (3-trifluoromethyl-isoxazol-5-ylmethyl)-amide] | 17 | 0.82 | 32 | 
5 | O=C(NCc1nc(C(F)(F)F)no1)c1ccc(OCC(F)(F)F)c(-c2ccc(Cl)cc2)n1 [Example 22, 6-(4-chloro-phenyl)-5-(2,2,2-trifluoro-ethoxy)-pyridine-2-carboxylic acid (3-trifluoromethyl-[1,2,4]oxadiazol-5-ylmethyl)-amide] | 6 | 2.27 | 40 | 
6 | CC(C)c1cc(CNC(=O)c2ncc(OCC(F)(F)F)c(-c3ccc(Cl)cc3)n2)on1 [Example 44, 4-(4-chloro-phenyl)-5-(2,2,2-trifluoro-ethoxy)-pyrimidine-2-carboxylic acid (3-isopropyl-isoxazol-5-ylmethyl)-amide] | 8 | 1.02 | 29 | 
7 | O=C(NCc1nc(C(F)(F)F)no1)c1cnc(OCC(F)(F)F)c(-c2ccc(Cl)cc2)c1 [Example 15, 5-(4-chloro-phenyl)-6-(2,2,2-trifluoro-ethoxy)-N-(3-trifluoromethyl-[1,2,4]oxadiazol-5-ylmethyl)-nicotinamide] | -6 | 0.84 | 45 | 
8 | O=C(NCc1nc(C2CC2)no1)c1cc(-c2ccc(Cl)cc2)c(OCC(F)(F)F)nn1 [Example 48, 5-(4-chloro-phenyl)-6-(2,2,2-trifluoro-ethoxy)-pyridazine-3-carboxylic acid (3-cyclopropyl-[1,2,4]oxadiazol-5-ylmethyl)-amide] | 19 | 0.73 | 35 | 
9 | COc1cc(CNC(=O)c2ncc(OCC(F)(F)F)c(-c3ccc(Cl)c(Cl)c3)n2)on1 [Example 25, 4-(3,4-dichlorophenyl)-N-((3-methoxyisoxazol-5-yl)methyl)-5-(2,2,2-trifluoroethoxy)pyrimidine-2-carboxamide] | 17 | 1.47 | 11 | 
10 | O=C(NCc1coc(C2CC2)n1)c1cc(-c2ccc(Cl)cc2)c(OCC(F)(F)F)cn1 [Example 70, 4-(4-chlorophenyl)-N-((2-cyclopropyloxazol-4-yl)methyl)-5-(2,2,2-trifluoroethoxy)picolinamide] | 14 | 1.56 | 28 | 
11 | O=C(NCc1cc(C(F)(F)F)no1)c1cc(-c2ccc(Cl)cc2)c(OCC(F)(F)F)nn1 [Example 60, 5-(4-chloro-phenyl)-6-(2,2,2-trifluoro-ethoxy)-pyridazine-3-carboxylic acid (3-trifluoromethyl-isoxazol-5-ylmethyl)-amide] | -3 | 0.75 | 30 | 
12 | Cc1cc(-c2cc(C(=O)NCc3nc(C(F)(F)F)no3)cnc2OCC(F)(F)F)ccc1Cl [Example 72, 5-(4-chloro-3-methylphenyl)-6-(2,2,2-trifluoroethoxy)-N-((3-(trifluoromethyl)-1,2,4-oxadiazol-5-yl)methyl)nicotinamide] | -1 | 0.5 | 34 | 
13 | CC(C)c1cc(CNC(=O)c2cnc(OCC(F)(F)F)c(-c3ccc(Cl)cc3)c2)no1 [Example 31, 5-(4-chlorophenyl)-N-((5-isopropylisoxazol-3-yl)methyl)-6-(2,2,2-trifluoroethoxy)nicotinamide] | 11 | 0.53 |  | 47
14 | COc1cc(CNC(=O)c2cnc(OCC(F)(F)F)c(-c3ccc(Cl)cc3)c2)on1 [Example 5, 5-(4-chloro-phenyl)-N-(3-methoxy-isoxazol-5-ylmethyl)-6-(2,2,2-trifluoro-ethoxy)-nicotinamide] | 5 | 2.1 | 48 | 
15 | Cc1cc(-c2cc(C(=O)NCc3nc(C(F)(F)F)no3)cnc2OC2CCC2)ccc1Cl [Example 94, 5-(4-chloro-3-methylphenyl)-6-cyclobutoxy-N-((3-(trifluoromethyl)-1,2,4-oxadiazol-5-yl)methyl)nicotinamide] | 2 | 0.31 | 19 | 
16 | O=C(NCc1nc(C(F)(F)F)no1)c1cnc(OC2CCC2)c(-c2ccc(F)c(F)c2)c1 [Example 91, 6-cyclobutoxy-5-(3,4-difluorophenyl)-N-((3-(trifluoromethyl)-1,2,4-oxadiazol-5-yl)methyl)nicotinamide] | 12 | 0.62 | 23 | 
17 | O=C(NCc1nc(C(F)(F)F)no1)c1cnc(OCC(F)(F)F)c(-c2ccc(F)c(F)c2)c1 [Example 89, 5-(3,4-difluorophenyl)-6-(2,2,2-trifluoroethoxy)-N-((3-(trifluoromethyl)-1,2,4-oxadiazol-5-yl)methyl)nicotinamide] | 4 | 1.96 | 28 | 
18 | CC(C)c1cc(CNC(=O)c2ccc(OCC(F)(F)F)c(-c3ccc(Cl)cc3)n2)on1 [Example 64, 6-(4-chloro-phenyl)-5-(2,2,2-trifluoro-ethoxy)-pyridine-2-carboxylic acid (3-isopropyl-isoxazol-5-ylmethyl)-amide] | 7 | 0.86 | 33 | 
19 | CCc1cc(CNC(=O)c2cc(-c3ccc(Cl)cc3)c(OCC(F)(F)F)cn2)on1 [Example 3, 4-(4-chloro-phenyl)-5-(2,2,2-trifluoro-ethoxy)-pyridine-2-carboxylic acid (3-ethyl-isoxazol-5-ylmethyl)-amide] | 18 | 1.24 |  | 38
20 | Cc1ccc(-c2cc(C(=O)NCc3nc(C(F)(F)F)no3)cnc2OCC(F)(F)F)cc1 [Example 79, 5-p-tolyl-6-(2,2,2-trifluoroethoxy)-N-((3-(trifluoromethyl)-1,2,4-oxadiazol-5-yl)methyl)nicotinamide] | 4 | 1.17 | 42 | 
